Patent US11897867B2, “6-phenyl-4,5-dihydropyridazin-3(2H)-one derivatives as PDE3A and PDE3B inhibitors for treating cancer” (Bayer Aktiengesellschaft, priority 2017, dated 2024)

Key:
[1] = test system: SK-MEL-3 (melanoma); assay: Cell proliferation measurement (Cell Titer Glo), SK-MEL-3; assay type: cell-based; conditions: Homo sapiens, SK-MEL3, SK-MEL-3 cells, 72 h treatment, read-out: Anti-proliferation IC50 SK-MEL-3 (melanoma)
Experimental: (§1) The antiproliferative activity of the compounds of the general formula (I) was examined in vitro in human cancer cells. For this purpose, 1000 cells (or 500 HeLa cells) were plated in 384-well plates with appropriate growth medium and incubated at 37° C. overnight. After 24 h, the cells on the test plate were treated with the compounds of the general formula (I) as and incubated at 37° C. for 72 h. The compounds were added to the cells by means of an HP D300 digital dispenser in a 10 (or more)-step dilution series. As control, the cells were treated with vehicle (DMSO at 0.3% final concentration). After 72 h, the cells were treated with 20 μl/well of 50% CTG solution in PBS (Promega Cell Titer Glo (catalogue #G755B and G756B)) and incubated at room temperature for 10 min, and luminescence was measured by means of a VICTOR V (Perkin Elmer), in order to determine cell viability at the end of treatment. The percentage effect on cell growth and the IC50 derived therefrom were determined for each test substance using the values from untreated wells (=percent viability). The IC50 values were calculated using a 4-parameter fit.

[2] = test system: HeLa cells (cervical cancer); assay: Cell proliferation measurement (Cell Titer Glo), HeLa; assay type: cell-based; conditions: Homo sapiens, 72 h treatment, read-out: Anti-proliferation IC50 HeLa (Cervical cancer)
Experimental: as §1

[3] = target: T1, human full length PDE3A (Homo sapiens, UniProt Q14432); assay: PDE3A enzyme inhibition (3H-cAMP Scintillation Proximity Assay); assay type: biochemical; conditions: PDE3A cell extract from Sf9 cells, 60 min room temperature; read-out: Target IC50 PDE3A IC50
T1 construct: Sf9 cells overexpressing human full length PDE3A; purchased SB Drug Discovery, UK; host or cells: Sf9 cells (cell extract)
Experimental: (§2) The commercially available 3H-cAMP Scintillation Proximity Assay (SPA, Perkin Elmer) system was used for enzyme inhibition studies. For the determination of the in vitro effect of test substances on the PDE3A reactions 2 μl of the respective test compound solution in DMSO (serial dilutions) were is placed in wells of microtiter plates (Isoplate-96/200W; Perkin Elmer). 50 μl of a dilution of PDE3A cell extract from Sf9 cells overexpressing human full length PDE3A (SB Drug Discovery, UK) in buffer A (50 mM Tris/HCl pH 7.5, 8.3 mM MgCl2, 1.7 mM EDTA, 0.2% BSA) was added. The dilution of the PDE3A cell extract was chosen such that the reaction kinetics was linear and less than 70% of the substrate was consumed (typical dilution 1:5000). The reaction was started by addition of 50 μl (0.025 μCi) of 1:2000 in buffer A w/o BSA diluted substrate [8-3H] adenosine 3′,5′-cyclic phosphate (1 μCi/μl; Perkin Elmer). After incubation at room temperature for 60 min, the reaction was stopped by addition of 25 μl of a suspension containing 18 mg/ml yttrium scintillation proximity beads (Perkin Elmer) in water. The microtiter plates were sealed and measured in a Microbeta scintillation counter (PerkinElmer Wallac). IC50 values were determined from sigmoidal curves by plotting percentage PDE3A activity vs log compound concentration.

[4] = target: T2, human full length PDE3B (Homo sapiens, UniProt Q13370); assay: PDE3B enzyme inhibition (3H-cAMP Scintillation Proximity Assay); assay type: biochemical; conditions: PDE3B cell extract from Sf9 cells, 60 min room temperature; read-out: Target IC50 PDE3B IC50
T2 construct: Sf9 cells overexpressing human full length PDE3B; purchased SB Drug Discovery, UK; host or cells: Sf9 cells (cell extract)
Experimental: as §2, with “PDE3B” for “PDE3A”, “were” for “were is”, “1:6000).” for “1:5000).”

T1 sequence (Q14432 whole entry): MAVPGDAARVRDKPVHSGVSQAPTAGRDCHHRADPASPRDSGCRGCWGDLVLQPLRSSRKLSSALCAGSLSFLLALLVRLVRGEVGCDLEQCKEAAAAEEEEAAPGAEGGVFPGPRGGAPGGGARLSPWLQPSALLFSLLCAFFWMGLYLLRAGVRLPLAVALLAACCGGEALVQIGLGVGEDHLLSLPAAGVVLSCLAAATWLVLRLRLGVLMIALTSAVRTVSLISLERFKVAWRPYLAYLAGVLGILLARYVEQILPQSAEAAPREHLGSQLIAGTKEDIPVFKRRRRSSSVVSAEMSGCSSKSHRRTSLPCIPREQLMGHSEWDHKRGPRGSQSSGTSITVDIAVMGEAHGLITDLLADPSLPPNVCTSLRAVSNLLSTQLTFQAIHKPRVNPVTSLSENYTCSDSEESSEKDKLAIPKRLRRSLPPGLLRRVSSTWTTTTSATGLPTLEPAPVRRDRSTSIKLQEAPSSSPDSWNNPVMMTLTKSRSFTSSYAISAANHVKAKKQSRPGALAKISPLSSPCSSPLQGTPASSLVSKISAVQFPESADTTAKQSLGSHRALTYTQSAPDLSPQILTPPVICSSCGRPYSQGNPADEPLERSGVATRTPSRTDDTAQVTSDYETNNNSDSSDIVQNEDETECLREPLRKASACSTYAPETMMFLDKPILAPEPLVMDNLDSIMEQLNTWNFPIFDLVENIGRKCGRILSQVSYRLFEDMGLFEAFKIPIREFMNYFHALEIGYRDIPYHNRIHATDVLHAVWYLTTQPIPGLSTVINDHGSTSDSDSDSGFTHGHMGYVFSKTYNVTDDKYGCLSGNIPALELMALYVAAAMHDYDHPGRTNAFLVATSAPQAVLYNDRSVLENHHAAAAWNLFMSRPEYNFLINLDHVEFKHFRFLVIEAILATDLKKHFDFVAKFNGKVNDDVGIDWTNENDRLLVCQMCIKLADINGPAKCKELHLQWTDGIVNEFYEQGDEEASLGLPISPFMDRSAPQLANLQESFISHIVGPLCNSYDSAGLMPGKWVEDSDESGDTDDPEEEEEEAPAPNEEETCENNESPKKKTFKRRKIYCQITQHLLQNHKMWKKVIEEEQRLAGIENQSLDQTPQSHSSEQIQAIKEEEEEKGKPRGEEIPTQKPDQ
T2 sequence (Q13370 whole entry): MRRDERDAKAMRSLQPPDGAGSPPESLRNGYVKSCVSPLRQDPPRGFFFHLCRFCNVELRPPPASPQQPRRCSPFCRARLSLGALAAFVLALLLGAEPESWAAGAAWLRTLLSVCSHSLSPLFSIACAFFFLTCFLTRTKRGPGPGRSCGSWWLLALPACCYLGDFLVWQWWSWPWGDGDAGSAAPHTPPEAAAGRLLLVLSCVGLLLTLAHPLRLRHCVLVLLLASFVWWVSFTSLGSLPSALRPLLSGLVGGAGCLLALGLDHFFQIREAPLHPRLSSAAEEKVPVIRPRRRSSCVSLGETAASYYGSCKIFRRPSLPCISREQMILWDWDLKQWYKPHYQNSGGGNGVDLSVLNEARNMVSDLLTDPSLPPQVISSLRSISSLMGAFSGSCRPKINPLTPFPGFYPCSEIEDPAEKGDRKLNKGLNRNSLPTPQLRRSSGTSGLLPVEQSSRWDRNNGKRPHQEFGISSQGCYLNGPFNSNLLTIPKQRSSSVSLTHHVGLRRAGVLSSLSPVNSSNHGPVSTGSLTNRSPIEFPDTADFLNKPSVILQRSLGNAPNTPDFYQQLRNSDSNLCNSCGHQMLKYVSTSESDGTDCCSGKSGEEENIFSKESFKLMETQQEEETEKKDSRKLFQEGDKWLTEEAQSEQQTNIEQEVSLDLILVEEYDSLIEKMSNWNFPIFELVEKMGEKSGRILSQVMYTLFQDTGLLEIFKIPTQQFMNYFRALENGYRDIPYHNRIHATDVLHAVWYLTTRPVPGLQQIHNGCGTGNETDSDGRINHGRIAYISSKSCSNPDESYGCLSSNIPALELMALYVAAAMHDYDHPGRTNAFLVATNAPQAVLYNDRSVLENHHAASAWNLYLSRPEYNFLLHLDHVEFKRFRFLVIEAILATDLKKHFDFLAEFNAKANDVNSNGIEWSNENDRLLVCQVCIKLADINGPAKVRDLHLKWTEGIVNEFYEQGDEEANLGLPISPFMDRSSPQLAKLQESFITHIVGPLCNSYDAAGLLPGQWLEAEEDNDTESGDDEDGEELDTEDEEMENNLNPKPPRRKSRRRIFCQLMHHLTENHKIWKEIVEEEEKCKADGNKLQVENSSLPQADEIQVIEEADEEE

CCNc1ccc(C2=NNC(=O)CC2)cc1C(F)(F)F [Example 18, 6-[4-(Ethylamino)-3-(trifluoromethyl)phenyl]-4,5-dihydropyridazin-3(2H)-one] was tested, and the IC50 [1] was 10.5 nM, the IC50 [2] was 5.39 nM and the IC50 [3] was 66 nM. For the same compound, the IC50 [4] was 73 nM.
O=C1CCC(c2ccc(-c3ccccc3O)c(F)c2)=NN1 [Example 50, 6-(2-fluoro-2′-hydroxy[1,1′-biphenyl]-4-yl)-4,5-dihydropyridazin-3(2H)-one] gave an IC50 [1] of 4.03 nM, an IC50 [2] of 2.83 nM and an IC50 [3] of 130 nM. The IC50 [4] was 130 nM.
In the case of Cc1cc(F)ccc1-c1ccc(C2=NNC(=O)CC2)cc1C [Example 4, 6-(4′-Fluoro-2,2′-dimethylbiphenyl-4-yl)-4,5-dihydropyridazin-3(2H)-one], the IC50 [1] is reported as 22.8 nM, the IC50 [2] is reported as 12.5 nM and the IC50 [3] is reported as 420 nM. It also gave an IC50 [4] of 160 nM.
For Cc1ncccc1-c1ccc(C2=NNC(=O)CC2)cc1F [Example 33, 6-[3-fluoro-4-(2-methylpyridin-3-yl)phenyl]-4,5-dihydropyridazin-3(2H)-one], the IC50 [1] was 24.8 nM, the IC50 [2] was 14.4 nM and the IC50 [3] was 66 nM. For the same compound, the IC50 [4] was 67 nM.
Compound O=C1CCC(c2ccc(-c3cc(F)ccc3F)c(F)c2)=NN1 [Example 42, 6-(2,2′,5′-trifluoro[1,1′-biphenyl]-4-yl)-4,5-dihydropyridazin-3(2H)-one] has an IC50 [1] of 8.4 nM, an IC50 [2] of 5.23 nM and an IC50 [3] of 80 nM. The IC50 [4] was 68 nM.
Cc1cc(C2=NNC(=O)CC2)ccc1-c1ccccc1F [Example 109, 6-(2′-fluoro-2-methyl[1,1′-biphenyl]-4-yl)-4,5-dihydropyridazin-3(2H)-one] was tested, and the IC50 [1] was 14.1 nM, the IC50 [2] was 5.63 nM and the IC50 [3] was 150 nM. For the same compound, the IC50 [4] was 150 nM.
Cc1cc(C2=NNC(=O)CC2)ccc1-c1ccccc1O [Example 102, 6-(2′-hydroxy-2-methyl[1,1′-biphenyl]-4-yl)-4,5-dihydropyridazin-3(2H)-one] was tested, and the IC50 [1] was > 100 nM, the IC50 [2] was 23.4 nM and the IC50 [3] was 460 nM. The IC50 [4] was 555 nM.
O=C1CCC(c2ccc(-c3ccoc3)c(F)c2)=NN1 [Example 45, 6-[3-fluoro-4-(furan-3-yl)phenyl]-4,5-dihydropyridazin-3(2H)-one] showed an IC50 [1] of 13.7 nM, an IC50 [2] of 10.4 nM and an IC50 [3] of 370 nM. It also gave an IC50 [4] of 310 nM.
Work on O=C1CCC(c2ccc(-c3cccc(F)c3F)c(F)c2)=NN1 [Example 53, 6-(2,2′,3′-trifluoro[1,1′-biphenyl]-4-yl)-4,5-dihydropyridazin-3(2H)-one] yielded an IC50 [1] of 6.78 nM, an IC50 [2] of 3.82 nM and an IC50 [3] of 68 nM. For the same compound, the IC50 [4] was 34 nM.
Cc1cc(C2=NNC(=O)CC2)ccc1-c1cn[nH]c1 [Example 6, 6-[3-Methyl-4-(1H-pyrazol-4-yl)phenyl]-4,5-dihydropyridazin-3(2H)-one] gave an IC50 [1] of 89.3 nM, an IC50 [2] of 53.3 nM and an IC50 [3] of 72 nM. It also gave an IC50 [4] of 87 nM.
In the case of Cc1ccccc1-c1ccc(C2=NNC(=O)CC2)cc1C [Example 116, 6-(2,2′-dimethyl[1,1′-biphenyl]-4-yl)-4,5-dihydropyridazin-3(2H)-one], the IC50 [1] is reported as 42.9 nM, the IC50 [2] is reported as 8.39 nM and the IC50 [3] is reported as 220 nM. For the same compound, the IC50 [4] was 170 nM.
CC(C)=Cc1ccc(C2=NNC(=O)CC2)cc1F [Example 27, 6-[3-Fluoro-4-(2-methylprop-1-en-1-yl)phenyl]-4,5-dihydropyridazin-3(2H)-one] showed an IC50 [1] of 6.1 nM, an IC50 [2] of 3.36 nM and an IC50 [3] of 130 nM. It also gave an IC50 [4] of 140 nM.
For COc1ncccc1-c1ccc(C2=NNC(=O)CC2)cc1F [Example 70, 6-[3-fluoro-4-(2-methoxypyridin-3-yl)phenyl]-4,5-dihydropyridazin-3(2H)-one], the IC50 [1] was 39.8 nM, the IC50 [2] was 22.9 nM and the IC50 [3] was 57 nM. The IC50 [4] was 50 nM.
In the case of COc1ccc(-c2ccc(C3=NNC(=O)CC3)cc2C)cn1 [Example 118, 6-[4-(6-methoxypyridin-3-yl)-3-methylphenyl]-4,5-dihydropyridazin-3(2H)-one], the IC50 [1] is reported as > 100 nM, the IC50 [2] is reported as 55.4 nM and the IC50 [3] is reported as 76 nM. The IC50 [4] was 90 nM.
In the case of Cc1cc(C2=NNC(=O)CC2)ccc1-c1cnc(N)nc1 [Example 91, 6-[4-(2-aminopyrimidin-5-yl)-3-methylphenyl]-4,5-dihydropyridazin-3(2H)-one], the IC50 [1] is reported as > 100 nM, the IC50 [2] is reported as 51.9 nM and the IC50 [3] is reported as 57 nM. It also gave an IC50 [4] of 73 nM.
O=C1CCC(c2ccc(-c3cncnc3)c(F)c2)=NN1 [Example 40, 6-[3-fluoro-4-(pyrimidin-5-yl)phenyl]-4,5-dihydropyridazin-3(2H)-one] gave an IC50 [1] of 47.6 nM, an IC50 [2] of 37.5 nM and an IC50 [3] of 140 nM. It also gave an IC50 [4] of 140 nM.
In the case of O=C1CCC(c2ccc(-c3ccc(F)c(F)c3)c(F)c2)=NN1 [Example 51, 6-(2,3′,4′-trifluoro[1,1′-biphenyl]-4-yl)-4,5-dihydropyridazin-3(2H)-one], the IC50 [1] is reported as 9.51 nM, the IC50 [2] is reported as 5.26 nM and the IC50 [3] is reported as 120 nM. For the same compound, the IC50 [4] was 92 nM.
With Cc1cc(C2=NNC(=O)CC2)ccc1-c1cccc(O)c1 [Example 101, 6-(3′-hydroxy-2-methyl[1,1′-biphenyl]-4-yl)-4,5-dihydropyridazin-3(2H)-one] the IC50 [1] was 36.3 nM, the IC50 [2] was 14.6 nM and the IC50 [3] was 67 nM. It also gave an IC50 [4] of 67 nM.
For Cc1ccc(-c2ccc(C3=NNC(=O)CC3)cc2C)c(F)c1 [Example 94, 6-(2′-fluoro-2,4′-dimethyl[1,1′-biphenyl]-4-yl)-4,5-dihydropyridazin-3(2H)-one], the IC50 [1] was 36.9 nM, the IC50 [2] was 7.01 nM and the IC50 [3] was 190 nM. The IC50 [4] was 175 nM.
Cc1ccc(F)cc1-c1ccc(C2=NNC(=O)CC2)cc1F [Example 57, 6-(2,5′-difluoro-2′-methyl[1,1′-biphenyl]-4-yl)-4,5-dihydropyridazin-3(2H)-one] was tested, and the IC50 [1] was 11.8 nM, the IC50 [2] was 5.34 nM and the IC50 [3] was 180 nM. The IC50 [4] was 60 nM.
Cc1cc(C2=NNC(=O)CC2)ccc1-c1cccc(N)c1 [Example 103, 6-(3′-amino-2-methyl[1,1′-biphenyl]-4-yl)-4,5-dihydropyridazin-3(2H)-one] was tested, and the IC50 [1] was > 100 nM, the IC50 [2] was 36.8 nM and the IC50 [3] was 170 nM. The IC50 [4] was 200 nM.
In the case of Cc1cc(C2=NNC(=O)CC2)ccc1-c1ccc(N)cc1 [Example 115, 6-(4′-amino-2-methyl[1,1′-biphenyl]-4-yl)-4,5-dihydropyridazin-3(2H)-one], the IC50 [1] is reported as 37.3 nM, the IC50 [2] is reported as 7.87 nM and the IC50 [3] is reported as 47 nM. It also gave an IC50 [4] of 80 nM.
Cc1cc(C2=NNC(=O)CC2)ccc1-c1ccc(Cl)cc1 [Example 122, 6-(4′-chloro-2-methyl[1,1′-biphenyl]-4-yl)-4,5-dihydropyridazin-3(2H)-one] was tested, and the IC50 [1] was 9.92 nM, the IC50 [2] was 2.67 nM and the IC50 [3] was 280 nM. The IC50 [4] was 200 nM.
Cc1cc(C2=NNC(=O)CC2)ccc1-c1cccc(C(N)=O)c1 [Example 114, 2′-methyl-4′-(6-oxo-1,4,5,6-tetrahydropyridazin-3-yl)[1,1′-biphenyl]-3-carboxamide] was tested, and the IC50 [1] was > 100 nM, the IC50 [2] was 46.3 nM and the IC50 [3] was 36 nM. The IC50 [4] was 53 nM.
